In data set [1] the target is T1, KIX domain of CBP, mutant lacking amino acids 586-602 (GST fusion) (Homo sapiens, UniProt Q92793).
T1 construct: spans CBP amino acids 586-666; made in house; host or cells: E. coli BL21(DE3)
Briefly: Biacore surface plasmon resonance, binding to KIX deletion mutant versus native KIX. The note with it: 5 μM. As for the experimental part: KIX domain mutants were created by standard cloning and mutagenesis methods in the pGEX4T3 vector (GE Healthcare Life Sciences). GST-KIX fusion proteins were expressed in BL21(DE3-) cells (New England Biolabs) following induction with 1 mM IPTG for 6 hours at 37 degrees. GST-KIX and its mutants were purified with the B-PER GST Fusion Protein Spin Purification Kit (Thermo Scientific/Pierce). Surface Plasmon Resonance (Biacore) analysis was performed on a GE Biacore 3000 surface plasmon resonance instrument in collaboration with the Stanford Protein and Nucleic Acid (PAN) Facility.
To confirm the binding of Compound A to the KIX domain of CBP, the KIX domain was expressed and purified as a fusion protein with Glutathione-S-Transferase (GST). Binding of Compound A to the KIX domain and two KIX domain mutants in which residues critical for CREB binding were altered or removed (Arg-600 mutated to Alanine or deletion of amino acids 586-602) was determined by Surface Plasmon Resonance (Biacore) analysis (FIG. 1, panel B). Mutation of Arginine-600 to Alanine reduced binding of Compound A by ˜45%, while a KIX domain mutant lacking amino acids 586-602 reduced binding by ˜70%. […] A hypothetical binding model between Compound A and CBP KIX domain is shown (FIG. 1, panel C). […]
For orientation: SPR reads the build-up and loss of mass on a sensor chip optically.

Data set [2] has as its system CREB-driven promoter (CRE). Briefly: CREB-driven (CRE) luciferase reporter in KG-1 cells. Particulars: 6 hours. The format is cell-based. As for the experimental part: KG-1 cell lines were created to express luciferase in a CREB-dependent or non-CREB-dependent fashion using lentiviral gene delivery. Cells were sorted for mCherry expression by flow cytometry and selected with puromycin. Luciferase activity was measured on a […] using the Promega Luciferase Activity Kit (Promega) per manufacturer's instructions following six hours of treatment with Compound A or 0.1% DMSO. The split Renilla luciferase complementation assay has been described previously (Li BX, and Xiao X. Discovery of a small-molecule inhibitor of the KIX-KID interaction. Chembiochem: a European journal of chemical biology. 2009; 10(17):2721-4). In this assay, the KID and KIX domains were fused to the N- and C-terminal regions of Renilla luciferase, respectively. Once KIX binds phosphorylated KID, the Renilla luciferase regions were brought together, resulting in luciferase activity.
To test the ability of Compound A to disrupt CREB-CBP binding in cells, a split Renilla luciferase complementation assay was performed. […] This early timepoint was selected to permit accurate reporter gene activity measurement prior to the onset of anticipated global cell dysfunction or death induced by Compound A. Treatment with 3 μM Compound A reduced luciferase activity by 33.2±7.7% at this timepoint. […] Thus, Compound A inhibits CREB function through disruption of CREB:CBP interaction.
On the technique in general: Reporter assays use an easily measured gene product as a stand-in for the process of interest.

The test system of data set [3] is normal bone marrow cells. Briefly: Normal bone marrow samples, viability. The format is cell-based, human. Particulars: 72 hours.
In data set [4] the test system is human AML patient sample cells (#186). Briefly: Primary AML patient sample (#186) xenograft in NSG mice. The format is in vivo. Particulars: 2.3 mg/kg IV once daily. On the procedure: For AML xenograft mouse experiments, HL-60 cells (2×10^6) expressing firefly luciferase and GFP, or cryopreserved human AML patient cells (5×10^6), were injected through the tail vein into NOD.Cg-prkdc^scid Il2rg^tm1WjlSzJ (NSG) mice. Mice were then Compound A or 10% DMSO, injected intravenously by tail vein daily, until death or an endpoint was reached (moribundity) in accordance with the animal care institutional guidelines. All mouse experiments were subject to institutional approval by Stanford University Institutional Animal Care and Use Committee. Leukemia progression in mice at the indicated time points was monitored using an in vivo IVIS 100 bioluminescenceoptical imaging system (Xenogen Corporation). D-Luciferin (Promega) dissolved in sterile phosphate-buffered saline was injected intraperitoneally at a dose of […], 15 minutes before measuring the luminescent signal. General anesthesia was induced with […] and continued during the procedure using a nose cone. […]
To examine the efficacy of CREB inhibition in an in vivo model of AML, 4-6 week old NOD.Cg-Prkdc^scid Il2rg^tm1WjlSzJ (NSG) mice were tail-vein injected with HL-60 AML cells (2×10^6) expressing Firefly luciferase and GFP. […] The efficacy of Compound A was also assessed in a mouse xenograft model using primary AML cell sample (patient sample #186), using similar methods.

The subject of data set [5] is HL-60 cells. Briefly: HL-60 viability, combination of Compound A with kinase inhibitors. The format is cell-based, human. The note with it: 48 hours.

“Also recorded” adds a separate entry of the source.

By viability is commonly meant the share of living cells, or the viability signal relative to a control.

T1 sequence (Q92793 with tags, fused parts or gaps, change not shown): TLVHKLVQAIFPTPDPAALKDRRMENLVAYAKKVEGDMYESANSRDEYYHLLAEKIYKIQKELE

In the case of `N#Cc1ccc(NC(=O)c2cc3ccccc3cc2O)cc1` [Compound A, N-(4-cyanophenyl)-3-hydroxy-2-naphthamide], the “reduction of binding of Compound A by KIX mutant lacking amino acids 586-602” value in data set [1] is ~70%. For the same compound, in data set [2] (3 μM), the “reduction of CREB-driven luciferase activity” value came to 33.2±7.7%. For the same compound, the CREB-driven luciferase activity result in data set [2] (KG-1 cells, 3, 10 and 30 μM) was “significantly decreased; also recorded: reduced by Compound A in a dose-dependent fashion”. Moreover, the “viability of normal bone marrow cells” value in data set [3] is on record as “did not significantly change”. Besides, the toxicity result in data set [4] (80 days) is given as “None of the mice treated for 80 days experienced any toxicity”. Moreover, the “survival (Kaplan-Meier)” value in data set [4] (versus DMSO-treated mice) is “significant survival advantage”. The values for the viability in data set [5] (Compound A alone), in data set [5] (Compound A combined with ERK inhibitor) and in data set [5] (Compound A combined with RSK inhibitor) were 87.4±7.3%, 55.3±3.4% and 49.5±2.3%, respectively.

Values taken from patent US20210205292A1, “INHIBITORS OF CREB-CBP INTERACTION FOR TREATMENT OF LEUKEMIA” (The Board of Trustees of the Leland Stanford Junior …, priority 2016, published 2021).
